“Also recorded” adds a separate entry of the source. Ends that are not written are not given here.

The target of one data set is HLA-A24 molecule (product of the HLA-A*2402 gene) (Homo sapiens, UniProt P04439, D101N/D140Y/D185E/E176V/E190D/F33S/G103R/G107R/I119L/I121M/I306V/K335N/L105A/L180Q/L300P/N151K/N90K/Q86E/Q94H/R106L/R138H/R89G/T104I/T345S/V100E/W191G/Y123F). Briefly: Experiment of binding peptide to HLA-A24 molecule (C1R-A24 cells, flow cytometry).
Conditions: not given
Turning to FWAKMMYNF [SEQ ID NO: 14], the “binding in HLA molecule binding experiment” value is on record as “high binding”.

The subject of a further data set is peptide-loaded C1R-A24 cells and T2-A24 cells. Description: Cytotoxic T-cell induction experiment (51Cr release, human PBMCs). The data set is classed as cell-based. The note with it: peptide 1 μM; blood samples from 8 (or 7) people; E/T ratio 10 to 20; FIG. 2 and FIG. 3. As for the experimental part:
The following experiment was carried out using a human blood sample.
Blood was sampled from a hepatitis C patient or a healthy individual from whom informed consent had been obtained in advance.
To blood cells (Peripheral blood mononuclear cells: PBMCs) sown on 96 well plates peptides of SEQ ID NOS: 1 to 14 were added weekly for 5 weeks so as to give final concentrations of 1 μM, and cytotoxic T-cells were activated in media to which was added 10% FCS and 5 ng/mL of IL-2, thus giving T-cell samples.
Cells were labeled with ^51Cr by adding the sodium salt of ^51Cr (sodium chromate) to C1R-A24 cells and T2-A24 cells (human B/T cultured cell strain having no TAP peptide transporter and expressing the HLA-A*2402 gene: supplied by Dr. Tsuboi, Faculty of Medicine, Osaka University) at 37° C. or 26° C. for 1 hour. Peptides of SEQ ID NOS: 1 to 14 were added thereto so as to make final concentrations of 1 μM, thus forming target cells having each peptide binding to the surface of the cells.
After the cytotoxic T-cells and the target cells prepared above were mixed at an E/T ratio (effector to target) of 10 to 20 and allowed to stand at 37° C. for 3.5 hours, the radioactivity of ^51Cr released in the culture supernatant was measured.
Consider FWAKMMYNF [SEQ ID NO: 14], for which the “capability of inducing cytotoxic T-cells” value is recorded as “did not show a capability of inducing cytotoxic T-cells; also recorded: none of the blood samples showed a capability of inducing cytotoxic T-cells”.

In a further data set the test system is HCV genome-expressing RzM6 cells. Briefly: Cytolysis assay against HCV genome-expressing cells. Format: cell-based, human. As to conditions: RzM6 cells vs HepG2 control; E/T ratio 10; 3 hours; FIG. 4. The source says: RzM6 cells were formed by transfecting HepG2, which is a human liver cell strain, with an HCV gene that had been modified so as to be able to conditionally induce expression of an HCV1b full genome (AY045702) in the presence of Cre (Activation of the CK1-CDK-Rb-E2F pathway in full genome hepatitis C virus-expressing cells. Tsukiyama-Kohara et al., J. Biol. Chem. 279, 14531-14541, 2004, RzM6 being supplied by Dr. Michinori Obara, Tokyo Metropolitan Institute of Medical Science).
In the HCV expression method, since the same RzM6 cells are doubly transfected with the Cre gene inserted in a conditional expression cassette arranged downstream of a Tamoxifen-inducible promoter, by adding tamoxifen, expression of Cre is induced, and as a result expression of the HCV gene can be induced. The RzM6 cells for which expression of the HCV gene was induced were labeled with ^51Cr by the same method as for the C1R-A24 cells, thus serving as target cells.
The cytotoxic T-cells prepared above and RzM6 target cells or HepG2 cells with no HCV introduced as a control were mixed at an E/T ratio of 10 and allowed to stand at 37° C. for 3 hours, and the radioactivity of ^51Cr released into the culture supernatant was measured.
In the case of ALYGVYPLL [SEQ ID NO: 5], the “cytolytic activity specific to HCV-expressing cells by the cytotoxic T-cells” value (“cytolytic activity specific” for short) is “a cytolytic activity specific to HCV-expressing cells by the cytotoxic T-cells was exhibited”. On the same count and under the same terms, with AYSQQTRGL [SEQ ID NO: 8] the entry was “a cytolytic activity specific to HCV-expressing cells by the cytotoxic T-cells was exhibited”.

As to ILMTHFFSI [SEQ ID NO: 13], the “cytolytic activity specific” value is recorded as “a cytolytic activity specific to HCV-expressing cells by the cytotoxic T-cells was exhibited”. The same measure, in the same setting: next, ILPCSFTTL [SEQ ID NO: 4]: “a cytolytic activity specific to HCV-expressing cells by the cytotoxic T-cells was exhibited”. In the case of ITYSTYCKF [SEQ ID NO: 9], the “cytolytic activity specific” value is “a cytolytic activity specific to HCV-expressing cells by the cytotoxic T-cells was exhibited”. On to RYAPACKPL [SEQ ID NO: 10], for which the “cytolytic activity specific” value was “a cytolytic activity specific to HCV-expressing cells by the cytotoxic T-cells was exhibited”. On the same count and under the same terms, with SYTWTGALI [SEQ ID NO: 12] the entry was “a cytolytic activity specific to HCV-expressing cells by the cytotoxic T-cells was exhibited”; with WHYPCTVNF [SEQ ID NO: 2], “a cytolytic activity specific to HCV-expressing cells by the cytotoxic T-cells was exhibited”.

Values taken from US20110206711A1, “METHOD FOR INDUCING CYTOTOXIC T-CELLS, CYTOTOXIC T-CELL INDUCER, AND PHARMACEUTICAL COMPOSITION AND VACCINE EMPLOYING SAME” (priority 2006, published 2011).
